Measurements published in patent US7037644B1, “Means and methods for monitoring non-nucleoside reverse transcriptase inhibitor antiretroviral therapy and guiding therapeutic decisions in the treatment of HIV/AIDS” (ViroLogic, Inc., priority 1998, dated 2006).
Entries after “also recorded” stand apart in the source; their conditions may differ.

Key:
Format in all cases: cell-based, HIV-1
[1] = test system: RTV-268, patient 97-268 (RT M41L, D67N, M184V, L210W, T215Y, K219Q, P236L); experiment: Phenotypic susceptibility assay (patient RTV); settings: patient virus RTV-268 vs reference virus
Source text: The resistance test vectors containing a functional luciferase gene cassette were constructed and host cells were transfected with the resistance test vector DNA. The resistant test vectors contained patient-derived reverse transcriptase and protease sequences that were either susceptible or resistant to the antiretroviral agents, such as nucleoside reverse transcriptase inhibitors, non-nucleoside reverse transcriptase inhibitors and protease inhibitors. The resistance test vector viral particles produced by transfecting the resistance test vector DNA into host cells, either in the presence or absence of protease inhibitors, were used to infect target host cells grown either in the absence of NRTI or NNRTI or in the presence of increasing concentrations of the drug. The amount of luciferase activity produced in infected target host cells in the presence of drug was compared to the amount of luciferase produced in infected target host cells in the absence of drug. Drug resistance was measured as the amount of drug required to inhibit by 50% the luciferase activity detected in the absence of drug (inhibitory concentration 50%, IC50). The IC50 values were determined by plotting percent drug inhibition vs. log10 drug concentration.
Host cells were seeded in 10-cm-diameter dishes and were transfected several days after plating with resistance test vector plasmid DNA and the envelope expression vector. Transfections were performed using a calcium-phosphate precipitation procedure. The cell culture media containing the DNA precipitate was replaced with fresh medium, from one to 24 hours, after transfection. Cell culture media containing resistance test vector viral particles was harvested one to four days after transfection and was passed through a […] filter before being stored at […]. HIV capsid protein (p24) levels in the harvested cell culture media were determined by an EIA method as described by the manufacturer (SIAC; Frederick, Md.). Before infection, target cells (293 and 293/T) were plated in cell culture media. Control infections were performed using cell culture media from mock transfections (no DNA) or transfections containing the resistance test vector plasmid DNA without the envelope expression plasmid. One to three or more days after infection the media was removed and cell lysis buffer (Promega) was added to each well. Cell lysates were assayed for luciferase activity (FIG. 3). The inhibitory effect of the drug was determined using the following equation: % luciferase inhibition=1−(RLUluc [drug]÷RLUluc)×100 where RLUluc [drug] is the relative light unit of luciferase activity in infected cells in the presence of drug and RLUluc is the Relative Light Unit of luciferase activity in infected cells in the absence of drug. IC50 values were obtained from the sigmoidal curves that were generated from the data by plotting the percent inhibition of luciferase activity vs. the log10 drug concentration. The drug inhibition curves are shown in (FIG. 3).
A resistance test vector was constructed as described in Example 1 from a patient sample designated 97-268. This patient had been treated with AZT and 3TC (NRTIs), indinavir and saquinavir (PRIs) and delavirdine (an NNRTI) for periods varying from 1 month to 2 years. Isolation of viral RNA and RT/PCR was used to generate a patient derived segment that comprised viral sequences coding for all of PR and amino acids 1-313 of RT. The patient derived segment was inserted into a indicator gene viral vector to generate a resistance test vector designated RTV-268. RTV-268 was then tested using the phenotypic susceptibility assay to determine accurately and quantitatively the level of susceptibility to a panel of anti-retroviral drugs. This panel of anti-retroviral drugs comprised members of the classes known as NRTIs (AZT, 3TC, d4T, ddI and ddC), NNRTIs (delavirdine and nevirapine), and PRIs (indinavir, nelfinavir, ritonavir, and saquinavir). An IC50 was determined for each drug tested. […]

Y188H-RTV = experiment: Phenotypic susceptibility assay (site directed mutant RTV); settings: Y188H alone
Experimental: (§1) The resistance test vectors containing a functional luciferase gene cassette were constructed and host cells were transfected with the resistance test vector DNA. The resistant test vectors contained patient-derived reverse transcriptase and protease sequences that were either susceptible or resistant to the antiretroviral agents, such as nucleoside reverse transcriptase inhibitors, non-nucleoside reverse transcriptase inhibitors and protease inhibitors. […] The IC50 values were determined by plotting percent drug inhibition vs. log10 drug concentration.
(§2) Host cells were seeded in 10-cm-diameter dishes and were transfected several days after plating with resistance test vector plasmid DNA and the envelope expression vector. […] HIV capsid protein (p24) levels in the harvested cell culture media were determined by an EIA method as described by the manufacturer (SIAC; Frederick, Md.). […] The inhibitory effect of the drug was determined using the following equation: % luciferase inhibition=1−(RLUluc [drug]÷RLUluc)×100 where RLUluc [drug] is the relative light unit of luciferase activity in infected cells in the presence of drug and RLUluc is the Relative Light Unit of luciferase activity in infected cells in the absence of drug. […]

[2] = test system: RTV-964, patient 98-964 (RT Y181I); experiment: Phenotypic susceptibility assay (patient RTV); settings: patient RTV pool
Experimental: as §1, §2

## Cc1ccnc2c1NC(=O)c1cccnc1N2C1CC1 [nevirapine]
[1]
  change in susceptibility: no change; also recorded: same as wild type
Y188H-RTV
  loss of susceptibility (fold, IC50) vs wild type control RTV: 3.5 fold
[2]
  decrease in susceptibility (fold, IC50): 750 fold
